Test results published in PubChem BioAssay AID330 (DTP/NCI, 2004).
Several values for one entry are separate records, joined by “and”; a condition that tells them apart may be missing. Equal entries are not always repeated. Inconclusive results and toxic doses are left out.

Tested on: P388 leukemia ip, CD2F1 mice, survival T/C
Test: NCI In Vivo Anticancer Drug Screen. Data for tumor model P388 Leukemia (intraperitoneal) in CD2F1 (CDF1) mice
Details: endpoint: median survival time, higher = longer survival
Procedure, shortened: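 Mice carrying the transplanted tumor received test compound or vehicle. Survival was recorded in each group, and the value is the treated-group measurement divided by that of the vehicle-treated control group.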

[1] = dose: 50.0 mg/kg/injection, schedule: Q01DX005 (ip), vehicle: saline with Tween-80
[2] = dose: 100.0 mg/kg/injection, schedule: Q01DX005 (ip), vehicle: saline with Tween-80
[3] = dose: 200.0 mg/kg/injection, schedule: Q01DX005 (ip), vehicle: saline with Tween-80

With Cc1c(Cl)cccc1Nc1ncccc1C(=O)OCC(O)CO (centres undefined) the T/C [1] was 96 % of control, the T/C [2] was 98 % of control and the T/C [3] was 95 % of control.

N#Cc1nc2c(nc1N)CCCCCCCCCC2 was tested, and the T/C (dose: 25.0 mg/kg/injection, schedule: Q01DX009 (ip), vehicle: Klucel (hydroxypropylcellulose) (HPC)) was 94 % of control, the T/C (dose: 50.0 mg/kg/injection, schedule: Q01DX009 (ip), vehicle: Klucel (hydroxypropylcellulose) (HPC)) was 94 % of control and the T/C (dose: 100.0 mg/kg/injection, schedule: Q01DX009 (ip), vehicle: Klucel (hydroxypropylcellulose) (HPC)) was 92 % of control. For the same compound, the T/C (dose: 200.0 mg/kg/injection, schedule: Q01DX009 (ip), vehicle: Klucel (hydroxypropylcellulose) (HPC)) was 100 % of control.

In the case of NC(=O)CCSC(N)=O, the T/C [1] is reported as 102 % of control, the T/C [2] is reported as 100 % of control and the T/C [3] is reported as 102 % of control.

In the case of COP(=O)(OC)OC.COP(=O)(OC)OC.COP(=O)(OC)OC.COP(=O)(OC)OC.COP(=O)(OC)OC.[O-][Cl+3]([O-])([O-])O.[Zn+2], the T/C (dose: 25.0 mg/kg/injection, schedule: Q01DX009 (ip), vehicle: saline) is reported as 104 % of control and 114 % of control, the T/C (dose: 50.0 mg/kg/injection, schedule: Q01DX009 (ip), vehicle: saline) is reported as 106 % of control and 112 % of control (2×) and the T/C (dose: 100.0 mg/kg/injection, schedule: Q01DX009 (ip), vehicle: saline) is reported as 118 % of control and 119 % of control and 123 % of control.

With COC1CCCC=C1[N+](=O)[O-] (centres undefined) the T/C (dose: 6.25 mg/kg/injection, schedule: Q01DX005 (ip), vehicle: saline) was 108 % of control, the T/C (dose: 12.5 mg/kg/injection, schedule: Q01DX005 (ip), vehicle: saline) was 116 % of control and the T/C (dose: 25.0 mg/kg/injection, schedule: Q01DX005 (ip), vehicle: saline) was 115 % of control.

With Cc1ccc2c(c1)c(N=NC(N)=S)c(O)n2C1OC(CO)C(O)C(O)C1O (centres undefined) the T/C (dose: 32.0 mg/kg/injection, schedule: Q01DX009 (ip), vehicle: saline with Tween-80) was 102 % of control, the T/C (dose: 64.0 mg/kg/injection, schedule: Q01DX009 (ip), vehicle: saline with Tween-80) was 95 % of control and the T/C (dose: 128.0 mg/kg/injection, schedule: Q01DX009 (ip), vehicle: saline with Tween-80) was 98 % of control.

With COc1cccc(C=O)c1OCCSC the T/C (dose: 25.0 mg/kg/injection, schedule: Q01DX005 (ip), vehicle: saline with Tween-80) was 99 % of control, the T/C [1] was 103 % of control and the T/C [2] was 108 % of control.

CCCOc1cc2c(cc1C(C)c1ccccc1)OCO2 (centres undefined) was tested, and the T/C [1] was 101 % of control, the T/C [2] was 95 % of control and the T/C [3] was 96 % of control.

For C/C(=N\N=C/N(C)S(C)(=O)=O)c1ccccc1, the T/C (dose: 50.0 mg/kg/injection, schedule: Q01DX005 (ip), vehicle: Klucel (hydroxypropylcellulose) (HPC)) was 104 % of control, the T/C (dose: 100.0 mg/kg/injection, schedule: Q01DX005 (ip), vehicle: Klucel (hydroxypropylcellulose) (HPC)) was 104 % of control and the T/C (dose: 200.0 mg/kg/injection, schedule: Q01DX005 (ip), vehicle: Klucel (hydroxypropylcellulose) (HPC)) was 99 % of control.

For CCn1c(Cl)c(/C=N\Nc2cccc([N+](=O)[O-])c2)c2ccccc21, the T/C (dose: 25.0 mg/kg/injection, schedule: Q01DX001 (ip), vehicle: Klucel (hydroxypropylcellulose) (HPC)) was 93 % of control, the T/C (dose: 50.0 mg/kg/injection, schedule: Q01DX001 (ip), vehicle: Klucel (hydroxypropylcellulose) (HPC)) was 87 % of control and the T/C (dose: 100.0 mg/kg/injection, schedule: Q01DX001 (ip), vehicle: Klucel (hydroxypropylcellulose) (HPC)) was 86 % of control and 93 % of control.

In the case of COc1cc2c(c(OC)c1OC)-c1ccc(SC)c(=O)cc1C(NC(=O)c1ccccc1)CC2 (centres undefined), the T/C (dose: 2.5 mg/kg/injection, schedule: Q01DX009 (ip), vehicle: Klucel (hydroxypropylcellulose) (HPC)) is reported as 155 % of control, the T/C (dose: 5.0 mg/kg/injection, schedule: Q01DX009 (ip), vehicle: Klucel (hydroxypropylcellulose) (HPC)) is reported as 117 % of control and the T/C (dose: 625.0 micrograms/kg/injection, schedule: Q01DX009 (ip), vehicle: Klucel (hydroxypropylcellulose) (HPC)) is reported as 112 % of control. For the same compound, the T/C (dose: 1250.0 micrograms/kg/injection, schedule: Q01DX009 (ip), vehicle: Klucel (hydroxypropylcellulose) (HPC)) was 120 % of control and the T/C (dose: 10000.0 micrograms/kg/injection, schedule: Q01DX009 (ip), vehicle: Klucel (hydroxypropylcellulose) (HPC)) was 90 % of control.

With COc1ccc(NN=O)cn1 the T/C (dose: 1.56 mg/kg/injection, schedule: Q01DX009 (ip), vehicle: water) was 100 % of control, the T/C (dose: 3.12 mg/kg/injection, schedule: Q01DX009 (ip), vehicle: water) was 100 % of control and 105 % of control and the T/C (dose: 6.25 mg/kg/injection, schedule: Q01DX009 (ip), vehicle: water) was 99 % of control and 106 % of control. The T/C (dose: 12.5 mg/kg/injection, schedule: Q01DX009 (ip), vehicle: water) was 106 % of control and 107 % of control and 98 % of control, the T/C (dose: 25.0 mg/kg/injection, schedule: Q01DX009 (ip), vehicle: water) was 115 % of control and 122 % of control and 97 % of control and the T/C (dose: 50.0 mg/kg/injection, schedule: Q01DX009 (ip), vehicle: water) was 114 % of control and 122 % of control. For the same compound, the T/C (dose: 100.0 mg/kg/injection, schedule: Q01DX009 (ip), vehicle: water) was 122 % of control and the T/C (dose: 200.0 mg/kg/injection, schedule: Q01DX009 (ip), vehicle: water) was 121 % of control.
